Test results taken from publication PMC4476799, “Englerin A Agonizes the TRPC4/C5 Cation Channels to Inhibit Tumor Cell Line Proliferation” (PLoS ONE, 2015).
pEC50, pIC50: −log10 of the molar value. Read-outs that look alike come from different tables or passages of the source.

Test system: cancer cell lines from the cancer cell line encyclopedia (CCLE)
Assay: Cell line profiling (CLiP) proliferation experiment
Assay type: cell-based
Settings: Homo sapiens; for pIC50: read-out: Crossing Point; for pEC50: read-out: Inflection Point
Description: Compound profiling experiment and data analysis was performed as previously described. Data was imported and plotted using the Tibco Spotfire DXP application. Lines were categorized as sensitive, intermediate and refractory as follows: Amax<-40 & Inflection Point <2 ~ Sensitive, Amax>-20 & Inflection Point >10 ~ Refractory, all else were called Intermediate. Cancer Cell line HG-U133 Plus 2 data was processed and normalized as described. […] Five sets of refractory cell lines were generated from the pool of refractory cell lines trying to match the lineage composition of the set of sensitive cell lines. The limma package was used as previously described to perform the statistical comparison.

[1] = HCC1187, cell line HCC1187, breast
[2] = HCC1954, cell line HCC1954, breast
[3] = HCT-15, cell line HCT-15, large_intestine
[4] = HCT-116, cell line HCT 116, large_intestine
[5] = HEC-1-A, cell line HEC-1-A, endometrium
[6] = HPBALL, cell line HPB-ALL, haematopoietic_and_lymphoid_tissue
[7] = Hs 294T, cell line Hs 294T, skin
[8] = Hs 695T, cell line Hs 695T, skin

SMILES: CC(C)[C@@]12C[C@@H](O)[C@@](C)(O1)[C@@H]1CC[C@@H](C)[C@H]1[C@@H]2OC(=O)/C=C/c1ccccc1 [Englerin B]
- pIC50 (HCC1143, cell line HCC1143): < 4.52
- pIC50 [1]: 4.86
- pEC50 [1]: 5.09
- pIC50 (HCC1395, cell line HCC1395, breast): < 4.52
- pIC50 (HCC1395, cell line HCC1395): < 4.52
- pIC50 (HCC1419, cell line HCC1419, breast): 4.60
- pIC50 (HCC1428, cell line HCC1428, breast): < 4.52
- pIC50 (HCC1428, cell line HCC1428): < 4.52
- pIC50 (HCC1569, cell line HCC1569, breast): 4.54
- pIC50 (HCC1806, cell line HCC1806, breast): < 4.52
- pIC50 (HCC1806, cell line HCC1806): < 4.52
- pIC50 (HCC1937, cell line HCC1937, breast): 4.54
- pIC50 [2]: 4.86
- pEC50 [2]: 4.95
- pEC50 (HCC1954, cell line HCC1954): 4.95
- pIC50 (HCC2218, cell line HCC2218, breast): < 4.52
- pIC50 (HCC2218, cell line HCC2218): < 4.52
- pIC50 [3]: < 4.52
- pEC50 [3]: 4.98
- pIC50 (HCT-15, cell line HCT-15): < 4.52
- pIC50 [4]: < 4.52
- pEC50 [4]: 5.09
- pIC50 (HCT-116, cell line HCT 116): < 4.52
- pIC50 [5]: < 4.52
- pEC50 [5]: 4.78
- pIC50 (HEC-1-A, cell line HEC-1-A): < 4.52
- pIC50 (HEL 92.1.7, cell line HEL 92.1.7, haematopoietic_and_lymphoid_tissue): 4.62
- pIC50 (HGC-27, cell line HGC-27, stomach): 4.96
- pIC50 (HMCB, cell line HMCB, skin): < 4.52
- pEC50 (HMCB, cell line HMCB, skin): 4.73
- pIC50 (HMCB, cell line HMCB): < 4.52
- pEC50 (HMCB, cell line HMCB): 4.73
- pIC50 (HPBALL, cell line HPB-ALL (haematopoietic_and_lymphoid_tissue, acute_lymphoblastic_T_cell_leukaemia)): 4.76
- pIC50 [6]: 4.76
- pEC50 [6]: 4.93
- pIC50 (HRT-18, cell line HRT-18, large_intestine): 4.70
- pIC50 (HT55, cell line HT55, large_intestine): < 4.52
- pIC50 (HT55, cell line HT55): < 4.52
- pIC50 (HT-29, cell line HT-29, large_intestine): 4.72
- pIC50 (HT-144, cell line HT-144, skin): < 4.52
- pIC50 (HT-144, cell line HT-144): < 4.52
- pIC50 (HT-1080, cell line HT-1080, soft_tissue): < 4.52
- pIC50 (HT-1080, cell line HT-1080): < 4.52
- pIC50 (HT-1376, cell line HT-1376, urinary_tract): < 4.52
- pIC50 (HT-1376, cell line HT-1376): < 4.52
- pIC50 [7]: < 4.52
- pEC50 [7]: 4.65
- pIC50 (Hs 294T, cell line Hs 294T): < 4.52
- pIC50 [8]: < 4.52
- pEC50 [8]: 4.66
- pIC50 (Hs 695T, cell line Hs 695T): < 4.52
- pIC50 (Hs-578T, cell line Hs 578T, breast): < 4.52
- pIC50 (Hs-578T, cell line Hs 578T): < 4.52
- pIC50 (HuH-1, cell line huH-1, liver): < 4.52
- pEC50 (HuH-1, cell line huH-1, liver): 5.12
- pIC50 (HuH-1, huH-1 (liver)): < 4.52
- pIC50 (HuP-T3, cell line HUP-T3, pancreas): < 4.52
- pIC50 (HuP-T3, cell line HUP-T3): < 4.52
- pIC50 (IGR-1, IGR-1 cells): < 4.52
- pIC50 (IGR-1, cell line IGR-1, skin): < 4.52
- pIC50 (IGR-37, cell line IGR-37, skin): 4.61
- pIC50 (IGROV-1, IGROV1 cells): < 4.52
- pIC50 (IGROV-1, cell line IGROV1, ovary): < 4.52
- pIC50 (IMR-32, IMR-32): 4.62
- pEC50 (IMR-32, IMR-32): 4.62
- pIC50 (IMR-32, IMR-32 cells): 4.62
- pEC50 (IMR-32, IMR-32 cells): 4.62
- pIC50 (IPC-298, IPC-298): < 4.52
- pEC50 (IPC-298, IPC-298): 5.98
- pIC50 (IPC-298, cell line IPC-298): < 4.52
- pIC50 (Ishikawa, Ishikawa (Heraklio) 02 ER- cells): < 4.52
- pIC50 (Ishikawa, Ishikawa (Heraklio) 02 ER-): < 4.52
- pIC50 (J82, J82): < 4.52
- pEC50 (J82, J82): 4.70
- pIC50 (JIMT-1, JIMT-1): < 4.52
- pIC50 (JIMT-1, JIMT-1 cells): < 4.52
- pIC50 (JJN-3, JJN-3): < 4.52
- pIC50 (JJN-3, cell line JJN-3): < 4.52
- pIC50 (JVM-2, JVM-2): 4.68
- pEC50 (JVM-2, JVM-2): 4.68
- pIC50 (JVM-2, JVM-2 cells): 4.68
- pEC50 (JVM-2, JVM-2 cells): 4.68
- pIC50 (JVM-3, JVM-3): < 4.52
- pIC50 (JVM-3, cell line JVM-3): < 4.52
- pIC50 (JeKo-1, JeKo-1): 5.09
- pEC50 (JeKo-1, JeKo-1): 5.12
- pEC50 (JeKo-1, JeKo-1 cells): 5.12
- pIC50 (Jurkat): 4.79
- pIC50 (K562, K-562): < 4.52
- pEC50 (K562, K-562): 5.02
- pIC50 (K562, cell line K-562): < 4.52
- pIC50 (KARPAS-299, KARPAS-299): 4.88
